The assay has as its system BCL6 positive individuals. Description: IVF ovum transfer or frozen embryo transfer after pretreatment. Particulars: pretreatment for two months prior to transfer, compared to no treatment, p<0.0001. In kind it is in vivo. As for the experimental part:
In vitro fertilized (IVF) ovum transfer or frozen embryo transfer was carried out in BCL6 positive individuals. There were three treatment groups: no treatment prior to transfer, laparoscopy with treatment of endometriosis prior to transfer and GnRH agonist suppression (Lupron) pretreatment for two months prior to transfer.

Consider one molecule from US11474105B2, “Methods and compositions for SIRT1 expression as a marker for endometriosis and subfertility” (The University of North Carolina at Chapel Hill, priority 2016, dated 2022).

Regarding `CCNC(=O)[C@@H]1CCCN1C(=O)[C@H](CCCNC(=N)N)NC(=O)[C@H](CC(C)C)NC(=O)[C@@H](CC(C)C)NC(=O)[C@H](Cc1ccc(O)cc1)NC(=O)[C@H](CO)NC(=O)[C@H](Cc1c[nH]c2ccccc12)NC(=O)[C@H](Cc1c[nH]cn1)NC(=O)[C@@H]1CCC(=O)N1` [Lupron, leuprolide acetate], the time to pregnancy entry is reported as “significantly better” and the transplantation rate entry is on record as “significantly better”.
